“Also recorded” adds a separate entry of the source. Counter-ions that a name gives are not always drawn. Blank lines part the entries; values can stand above or below the compound they belong to.
Legend:
Assay type in all cases: physicochemical
[1] = Thermogravimetric analysis (TGA) weight loss / water content; conditions: potassium salt; for hydration state: TGA
Experimental: (§1) The crystal forms were characterized and evaluated by measuring the heats of solution or solution calorimetry, solubility data, x-ray powder diffraction patterns (XRPD), differential scanning calorimetry (DSC) and thermogravimetric analysis (TGA). Heats of solution at 30° C. were obtained in the Setaram C-80 calvet calorimeter with sample size of 7-13 mg dissolved into 5 ml of 88% DMSO 12% water for a final concentration of 1.4-2.6 mg/ml. XRPD patterns were recorded using an automated Siemens X-ray diffractometer with copper tube K alpha radiation. DSC and TGA were conducted using a Perkin Elmer series 7 instrument with a scan rate of 10° C./min over the temperature range of 30°-300° C. Utilizing these techniques the thermodynamic stability of the polymorphs of 3-[2'-(N-benzoyl)sulfonamidobiphenyl-4-yl]methyl-5,7-dimethyl-2-ethyl-3H-imidazo[4,5-b]pyridine potassium salt was determined.
Step K: Preparation of 3-[2'-(N-Benzyl)sulfonamidobiphenyl-4-yl]methyl-5,7-dimethyl-2-ethyl-3H-imidazo[4,5-b]pyridine potassium salt--(Forms I, Id and W) [drawing 13] In a 72-L four-necked flask fitted with an overhead stirrer and a reflux condenser, 3-[2'-(N-benzyl)sulfonamidobiphenyl-4-yl]methyl-5,7-dimethyl-2-ethyl-3H-imidazo[4,5-b]pyridine 1 (5.04 kg, 9.6 mol), methanol (14.5 L) and water (2.5 L) are mixed. The slurry is warmed to 62° C. under a nitrogen atmosphere and 1.94M potassium hydroxide (4.96 L, 9.61 mol) is added to the slurry at 62° C. over 1.5 hours to provide a homogeneous solution. Isopropyl acetate (13.83 L) is then added at 65° C. and the mixture is warmed to 70° C. The homogeneous solution is filtered at 70° C. to remove any particulates that are present. The filtrate is diluted with isopropyl acetate (1.3 L), methanol (0.6 L) and water (0.1 L). […] The homogeneous mixture is cooled to 52° C. over 2 hours, whereupon potassium salt seed of form "I" (140 g) is added. This mixture becomes cloudy after 30 min. The mixture is aged for 10 hours at 52° C. The white slurry is cooled to 48° C. over 1 hour and stirred for 3 hours. Finally, the crystallization mixture is cooled to 0° C. at a rate of 1° C./12.5 min. and aged for 2 hours at 0° C. […] The solid is centrifuged at 0° C. and displacement-washed with a mixture of 2:2:1 cold (0° C.) isopropyl acetate/methanol/water (5.65 L) followed by isopropyl acetate (2.3 L). The solid is semi-dried to a TG of 10-15% by spin drying. The mother liquors contain 21 wt % of 3-[2'-(N-benzyl)sulfonamidobiphenyl-4-yl]methyl-5,7-dimethyl-2-ethyl-3H-imidazo[4,5-b]pyridine potassium salt. At this stage, the crystal form of the product is form "W". The product is powdered by passing through a screen (size=12). The solid is dried by passing dry nitrogen over the solid under vacuum at 22° C. for 5 hours to yield 4.55 kg of 3-[2'-(N-benzyl)sulfonamidobiphenyl-4-yl]methyl-5,7-dimethyl-2-ethyl-3H-imidazo[4,5-b]pyridine potassium salt as the form "I" with a purity of 99.7% (assay-HClO4 titration) and TG of 7-10%. Generally, the wet cake consists of residual water, methanol and isopropyl acetate. The K-salt is considered dry when <0.05% methanol and isopropyl acetate are detected by ^1 H NMR. The product is further powdered by passing the solid through a Quadro Comil (model 197s, screen size=1143 mm round impeller) to yield 4.5 kg. The product is dried to a TG of 4.6-5.5% by the passage of dry nitrogen over the solid under vacuum at 22° C. After 10 hours, 4.24 kg (78%) of the potassium salt as the form "I" is obtained with a TG of […] (99.7 wt % by titration). The water content can be monitored by TG analysis. The TG of the potassium salt of form "I" is 4.6-5.5%. The crystal form is monitored by X-ray analysis. When the potassium salt is over dried, the crystal form converts to form "Id" (TG<4.6%). […]

[2] = Crystal form stability in water (XRPD of remaining solid); conditions: room temperature, potassium salt
Description: [13) S. R. Byre. "Solid State Chemistry of Drugs." Academic Press, New York, 1982.] […] Recrystallization of any of these lots from solvents like ethanol, methanol, isopropanol, acetone, etc. gave new crystal forms different from the original forms. […] Solubility in water at room temperature was one of these techniques. The equilibrium solubility in water, at room temperature for five polymorphs (Forms "B", "C", "D", "F", and "G") were the same (Table 1). When the remaining solids were filtered, air dried or vacuum dried overnight at room temperature the XRPD patterns had changed from the initial patterns and all were exactly the same. These experiments indicate that all of the crystal forms converted in water at room temperature to a new crystalline form designated […].
The remaining form "I" solid after equilibrium solubility studies in water was removed by filtration and vacuum dried overnight at room temperature.
After the discovery of form "I", form "D" could no longer be isolated in our laboratory. TGA studies indicate that form "I" of 3-[2'-(N-benzoyl)sulfonamidobiphenyl-4-yl]methyl-5,7-dimethyl-2-ethyl-3H-imidazo[4,5-b]pyridine potassium salt is a dihydrate (FIG. 4).

[3] = Equilibrium solubility in water at room temperature; conditions: room temperature
[4] = Heat of solution by solution calorimetry (Setaram C-80); conditions: potassium salt
Experimental: The heat of solution of different crystal forms of 3-[2'-(N-benzoyl)sulfonamidobiphenyl-4-yl]methyl-5,7-dimethyl-2-ethyl-3H-imidazo[4,5-b]pyridine potassium salt were studied at 30° C. The heat of solution is a measure of the crystal lattice energy. […] Heats of solution had to be conducted in a solvent which dissolved the samples quickly without conversion to another polymorph. This really limited solvents which could be used. Dimethylsulfoxide was chosen for this reason. The heats of solution therefore have contributions from the lattice energy of the solid as well as heat of dilution of lattice water in dimethylsulfoxide. The calorimeter therefore produces a complex signal that has an exothermic contribution from the water and an additional contribution from the energy required to dissolve the crystal. […] Additional heats of solution were determined in a mixed solvent system of 88% dimethylsulfoxide and 12% water. This system was used to minimize the contribution of moisture to the heat of solution.
as §1, with “C.” for “C. Utilizing these techniques the thermodynamic stability of the polymorphs of 3-[2'-(N-benzoyl)sulfonamidobiphenyl-4-yl]methyl-5,7-dimethyl-2-ethyl-3H-imidazo[4,5-b]pyridine potassium salt was determined.”

[5] = Crystal form stability on heating
[6] = Crystal form conversion in acetonitrile, with or without water (XRPD); conditions: overnight, room temperature, potassium salt; for crystal form after shaking in acetonitrile-water: acetonitrile with added water; for crystal form after stirring/shaking in acetonitrile: no added water
Description: Since all of the crystal forms of 3-[2'-(N-benzoyl)sulfonamidobiphenyl-4-yl]methyl-5,7-dimethyl-2-ethyl-3H-imidazo[4,5-b]pyridine potassium salt were changed to a single crystal form "D", in water, the effect of a non-aqueous solvent was studied. 3-[2'-(N-benzoyl)sulfonamidobiphenyl-4-yl]methyl-5,7-dimethyl-2-ethyl-3H-imidazo[4,5-b]pyridine potassium salt, Forms "A", "B", "C", and "D" were stirred overnight at room temperature in acetonitrile. The remaining solids were filtered and then vacuum dried overnight at room temperature. The crystallinity of the solids was examined by XRPD spectroscopy.
All of the crystal forms were converted to a single crystal form ("D") in water, but in acetonitrile to two different crystal forms. […] To explore the role of water in the above experiments, 3-[2'-(N-benzoyl)sulfonamidobiphenyl-4-yl]methyl-5,7-dimethyl-2-ethyl-3H-imidazo[4,5-b]pyridine potassium salt, form "C" (an anhydrous crystal form) was this time suspended in acetonitrile with added water (water was 10% of the solid weight). As a control experiment Form "C" was also suspended in acetonitrile with no added water. The samples were shaken overnight at room temperature. The remaining solids were filtered and vacuum dried overnight at room temperature.

% Weight Loss (Δ 30-150° C. by TGA) ([1]; listed as J): 0.7%
Compound: CCc1nc2c(C)cc(C)nc2n1Cc1ccc(-c2ccccc2S(=O)(=O)NC(=O)c2ccccc2)cc1 [Form J, 3-[2'-(N-benzoyl)sulfonamidobiphenyl-4-yl]methyl-5,7-dimethyl-2-ethyl-3H-imidazo[4,5-b]pyridine potassium salt]

crystal form after suspension in water ([2]; listed as D): converted to form "I"
solubility ([3]; water, Table I): 10.4 ± 0.7 mg/mL
ΔH solution 88% DMSO/12% H2O ([4]; 88% DMSO/12% H2O, 30° C., listed as D): -16.33 ± 1.61 J/g
ΔH solution DMSO at 30° C. ([4]; 30° C., listed as D): -1.36 ± 0.42 J/g
thermodynamic stability ([4]; from heats of solution and equilibrium solubility, listed as D): metastable with respect to "I"
crystal form after heating at 40° C. for 30 minutes ([5]; 40° C., 30 minutes): did not change
crystal form after shaking in acetonitrile-water ([6]; listed as D): the final crystal form was also "I"
% Weight Loss (Δ 30-150° C. by TGA) ([1]; listed as D): 12-14%
hydration state ([1]; listed as D): hydrated
Compound: CCc1nc2c(C)cc(C)nc2n1Cc1ccc(-c2ccccc2S(=O)(=O)NC(=O)c2ccccc2)cc1 [Form D, 3-[2'-(N-benzoyl)sulfonamidobiphenyl-4-yl]methyl-5,7-dimethyl-2-ethyl-3H-imidazo[4,5-b]pyridine potassium salt]
crystal form after heating at 40° C. for 24 hours ([5]; 40° C., 24 hours): crystallinity was reduced and XRPD pattern changed to a new form called "F"
crystal form after heating up to 190° C. ([5]; up to 190° C., a few minutes): produced a new crystalline anhydrous form designated "G"
crystal form after stirring/shaking in acetonitrile ([6]; listed as D): converted to a new crystal form ("I"); also recorded: changed to form "I"

crystal form after suspension in water ([2]; listed as F): converted to form "D"
Compound: CCc1nc2c(C)cc(C)nc2n1Cc1ccc(-c2ccccc2S(=O)(=O)NC(=O)c2ccccc2)cc1 [Form F, 3-[2'-(N-benzoyl)sulfonamidobiphenyl-4-yl]methyl-5,7-dimethyl-2-ethyl-3H-imidazo[4,5-b]pyridine potassium salt]

ΔH solution DMSO at 30° C. ([4]; 30° C., listed as A): 4.92 ± 0.47 J/g
% Weight Loss (Δ 30-150° C. by TGA) ([1]; listed as A): 3.4%
hydration state ([1]; listed as A): hydrated
Compound: CCc1nc2c(C)cc(C)nc2n1Cc1ccc(-c2ccccc2S(=O)(=O)NC(=O)c2ccccc2)cc1 [Form A, 3-[2'-(N-benzoyl)sulfonamidobiphenyl-4-yl]methyl-5,7-dimethyl-2-ethyl-3H-imidazo[4,5-b]pyridine potassium salt]
crystal form after stirring/shaking in acetonitrile ([6]; listed as A): converted to a new crystal form ("I"); also recorded: changed to form "I"

crystal form after suspension in water ([2]; listed as G): converted to form "D"
ΔH solution DMSO at 30° C. ([4]; 30° C., listed as G): 8.51 ± 0.66 J/g
% Weight Loss (Δ 30-150° C. by TGA) ([1]; listed as G): 0%
hydration state ([1]; listed as G): anhydrous
Compound: CCc1nc2c(C)cc(C)nc2n1Cc1ccc(-c2ccccc2S(=O)(=O)NC(=O)c2ccccc2)cc1 [Form G, 3-[2'-(N-benzoyl)sulfonamidobiphenyl-4-yl]methyl-5,7-dimethyl-2-ethyl-3H-imidazo[4,5-b]pyridine potassium salt]

ΔH solution DMSO at 30° C. ([4]; 30° C., listed as C): 29.75 ± 0.46 J/g
crystal form after shaking in acetonitrile-water ([6]; listed as C): converted to form "I"
crystal form after stirring/shaking in acetonitrile ([6]; listed as C): changed to another new form ("J")
% Weight Loss (Δ 30-150° C. by TGA) ([1]; listed as C): 0.6%
hydration state ([1]; listed as C): anhydrous
Compound: CCc1nc2c(C)cc(C)nc2n1Cc1ccc(-c2ccccc2S(=O)(=O)NC(=O)c2ccccc2)cc1 [Form C, 3-[2'-(N-benzoyl)sulfonamidobiphenyl-4-yl]methyl-5,7-dimethyl-2-ethyl-3H-imidazo[4,5-b]pyridine potassium salt]

equilibrium solubility in water, comparison of five polymorphs [3]: the same
ΔH solution DMSO at 30° C. ([4]; 30° C., listed as B): 17.78 ± 0.52 J/g
crystal form after stirring/shaking in acetonitrile ([6]; listed as B): changed to another new form ("J")
% Weight Loss (Δ 30-150° C. by TGA) ([1]; listed as B): 0.5%
hydration state ([1]; listed as B): anhydrous
Compound: CCc1nc2c(C)cc(C)nc2n1Cc1ccc(-c2ccccc2S(=O)(=O)NC(=O)c2ccccc2)cc1 [Form B, 3-[2'-(N-benzoyl)sulfonamidobiphenyl-4-yl]methyl-5,7-dimethyl-2-ethyl-3H-imidazo[4,5-b]pyridine potassium salt]

Source: patent US5693812A, “Polymorphic forms of an angiotensin II antagonist” (priority 1996, dated 1997)
